# Source: PubChem BioAssay (NCI)
#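 Following 48 hours of exposure in 96-well plates, responses at five concentrations were used to interpolate endpoints linearly. At the GI50, growth is halved. The concentration for full growth arrest is given as TGI.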
# Experiments:
# Assay in all cases: growth of human tumour cells (NCI), 48 h
# [1] = system: HOP-92 NSCLC
# [2] = system: SK-MEL-2 melanoma
# [3] = system: HT29 colon
# [4] = system: UACC-62 melanoma
# [5] = system: BT-549 breast
# [6] = system: A549 NSCLC
# [7] = system: RXF 393 renal
# [8] = system: K-562 leukemia
# [9] = system: T-47D breast
# [10] = system: HL-60(TB) leukemia
# [11] = system: NCI-H522 lung
# [12] = system: HCC-2998 colon
# [13] = system: UACC-257 melanoma
# [14] = system: IGROV1 ovarian
# [15] = system: NCI-H226 lung
# [16] = system: SK-OV-3 ovarian
# [17] = system: HCT-15 colon
# [18] = system: CCRF-CEM leukemia
# [19] = system: SR leukemia
# [20] = system: MCF7 breast
# [21] = system: HS 578T breast
# [22] = system: PC-3 prostate
# [23] = system: KM12 colon
# [24] = system: CAKI-1 renal
# [25] = system: SK-MEL-5 melanoma
# [26] = system: SF-539 CNS
# [27] = system: EKVX NSCLC
# [28] = system: M14 melanoma
# [29] = system: DU-145 prostate
# [30] = system: SW-620 colon
# [31] = system: SNB-19 CNS
# [32] = system: COLO 205 colon
# [33] = system: MOLT-4 leukemia
# [34] = system: 786-0 renal
# [35] = system: A498 renal
# [36] = system: SF-268 CNS
# [37] = system: OVCAR-5 ovarian
# [38] = system: ACHN renal
# [39] = system: SN12C renal
# [40] = system: HCT-116 colon
# [41] = system: MDA-MB-468 breast
# [42] = system: SK-MEL-28 melanoma
# [43] = system: MALME-3M melanoma
# [44] = system: OVCAR-8 ovarian
# [45] = system: SF-295 CNS
# [46] = system: MDA-MB-435
# [47] = system: TK-10 renal
# [48] = system: NCI-H460 lung
# [49] = system: OVCAR-4 ovarian
# [50] = system: HOP-62 NSCLC
# [51] = system: SNB-75 CNS
# [52] = system: RPMI-8226 leukemia
# [53] = system: U251 CNS
# [54] = system: LOX IMVI melanoma
# [55] = system: NCI-H23 lung
# [56] = system: MDA-MB-231 breast
# [57] = system: OVCAR-3 ovarian
# [58] = system: UO-31 renal
smiles,measurement,setting,value
COc1ccc(NC2=C(I)C(=O)C(C)=C(C)C2=O)cc1,GI50,[1],7.46 µM
same,TGI,[1],26.2 µM
same,GI50,[2],3.14 µM
same,TGI,[2],12.4 µM
same,GI50,[3],18.2 µM
same,TGI,[3],48.8 µM
same,GI50,[4],9.68 µM
same,TGI,[4],23.8 µM
same,GI50,[5],12.4 µM
same,TGI,[5],25.8 µM
same,GI50,[6],16.9 µM
same,TGI,[6],39 µM
same,GI50,[7],3.6 µM
same,TGI,[7],14.8 µM
same,GI50,[8],2.99 µM
same,TGI,[8],> 100 µM
same,GI50,[9],1.98 µM
same,TGI,[9],16.3 µM
same,GI50,[10],0.341 µM
same,TGI,[10],1.54 µM
same,GI50,[11],6.54 µM
same,TGI,[11],21 µM
same,GI50,[12],16.7 µM
same,TGI,[12],33.5 µM
same,GI50,[13],2.42 µM
same,TGI,[13],8 µM
same,GI50,[14],4.37 µM
same,TGI,[14],17.3 µM
same,GI50,[15],12.5 µM
same,TGI,[15],28.9 µM
same,GI50,[16],18 µM
same,TGI,[16],62.9 µM
same,GI50,[17],13.5 µM
same,TGI,[17],27.9 µM
same,GI50,[18],1.36 µM
same,TGI,[18],35.4 µM
same,GI50,[19],1.07 µM
same,TGI,[19],> 100 µM
same,GI50,[20],2.71 µM
same,TGI,[20],10 µM
same,GI50,[21],14.5 µM
same,TGI,[21],50.2 µM
same,GI50,[22],3.42 µM
same,TGI,[22],> 100 µM
same,GI50,[23],6.96 µM
same,TGI,[23],42 µM
same,GI50,[24],3.89 µM
same,TGI,[24],22 µM
same,GI50,[25],4.74 µM
same,TGI,[25],18.2 µM
same,GI50,[26],2.5 µM
same,TGI,[26],7.23 µM
same,GI50,[27],4.25 µM
same,TGI,[27],16.7 µM
same,GI50,[28],15 µM
same,TGI,[28],28.7 µM
same,GI50,[29],16.1 µM
same,TGI,[29],30.7 µM
same,GI50,[30],11.7 µM
same,TGI,[30],29.2 µM
same,GI50,[31],15.4 µM
same,TGI,[31],34.1 µM
same,GI50,[32],14.8 µM
same,TGI,[32],28 µM
same,GI50,[33],0.625 µM
same,TGI,[33],32.6 µM
same,GI50,[34],8.56 µM
same,TGI,[34],27.4 µM
same,GI50,[35],24.6 µM
same,TGI,[35],68.3 µM
same,GI50,[36],12.3 µM
same,TGI,[36],55.6 µM
same,GI50,[37],11.7 µM
same,TGI,[37],25.6 µM
same,GI50,[38],4.61 µM
same,TGI,[38],17.5 µM
same,GI50,[39],4.04 µM
same,TGI,[39],15.5 µM
same,GI50,[40],2.93 µM
same,TGI,[40],10.4 µM
same,GI50,[41],0.416 µM
same,TGI,[41],2.49 µM
same,GI50,[42],14.3 µM
same,TGI,[42],28.9 µM
same,GI50,[43],11.6 µM
same,TGI,[43],23.9 µM
same,GI50,[44],2.26 µM
same,TGI,[44],6.54 µM
same,GI50,[45],13.9 µM
same,TGI,[45],28.4 µM
same,GI50,[46],1.82 µM
same,TGI,[46],3.37 µM
same,GI50,[47],17 µM
same,TGI,[47],37.2 µM
same,GI50,[48],15.7 µM
same,TGI,[48],32.8 µM
same,GI50,[49],3.98 µM
same,TGI,[49],15.2 µM
same,GI50,[50],14.9 µM
same,TGI,[50],36.6 µM
same,GI50,[51],15.9 µM
same,TGI,[51],35.6 µM
same,GI50,[52],3.08 µM
same,TGI,[52],20.2 µM
same,GI50,[53],11.5 µM
same,TGI,[53],24.7 µM
same,GI50,[54],2.37 µM
same,TGI,[54],8.8 µM
same,GI50,[55],4.11 µM
same,TGI,[55],17.6 µM
same,GI50,[56],2.37 µM
same,TGI,[56],8.48 µM
same,GI50,[57],2.75 µM
same,TGI,[57],9.45 µM
same,GI50,[58],6.03 µM
same,TGI,[58],19.8 µM
